Laboratory results published in the NIST ThermoML archive (doi:10.1016/j.jct.2018.06.015).
Numbers after ± are expanded uncertainties.

Experiments:
[1] = 100 kPa, Liquid; for speed of sound: Frequency=3 MHz, Single path-length method; for mass density: Vibrating tube method
[2] = xn = mol fraction of the nth substance listed; settings: 100 kPa, Liquid, x2 = 0; for speed of sound: Frequency=3 MHz, Single path-length method; for mass density: Vibrating tube method

speed of sound ([1]; 293.15 K) [m/s]	mass density ([1]; 293.15 K) [kg/m3]	speed of sound ([1]; 298.15 K) [m/s]	mass density ([1]; 298.15 K) [kg/m3]	speed of sound ([1]; 303.15 K) [m/s]	mass density ([1]; 303.15 K) [kg/m3]	speed of sound ([1]; 308.15 K) [m/s]	mass density ([1]; 308.15 K) [kg/m3]	speed of sound ([1]; 313.15 K) [m/s]	mass density ([1]; 313.15 K) [kg/m3]	speed of sound ([2]; 293.15 K) [m/s]	mass density ([2]; 293.15 K) [kg/m3]	speed of sound ([2]; 298.15 K) [m/s]	mass density ([2]; 298.15 K) [kg/m3]	speed of sound ([2]; 303.15 K) [m/s]	mass density ([2]; 303.15 K) [kg/m3]	speed of sound ([2]; 308.15 K) [m/s]	mass density ([2]; 308.15 K) [kg/m3]	speed of sound ([2]; 313.15 K) [m/s]	mass density ([2]; 313.15 K) [kg/m3]	SMILES
1378.2 ± 2.5	952.288 ± 0.41	1361.3 ± 2.5	948.1 ± 0.41	1344.5 ± 2.5	943.909 ± 0.41	1326.4 ± 2.5	939.704 ± 0.41	1307.7 ± 2.5	935.503 ± 0.41											CCCCOCCOCCO [3,6-dioxa-1-decanol]
										1396.7 ± 2.5	829.898 ± 0.42	1379.4 ± 2.5	826.489 ± 0.42	1362.4 ± 2.5	823.069 ± 0.42	1345.6 ± 2.5	819.635 ± 0.42	1329.1 ± 2.5	816.188 ± 0.42	CCCCCCCCCCO [decan-1-ol] + CCCCOCCOCCO
										1320.4 ± 2.5	819.239 ± 0.42	1303.5 ± 2.5	815.652 ± 0.42	1286.7 ± 2.5	812.043 ± 0.42	1270 ± 2.5	808.402 ± 0.42	1253.5 ± 2.5	804.743 ± 0.42	CCCCCCO [hexan-1-ol] + CCCCOCCOCCO
										1364.1 ± 2.4	825.337 ± 0.41	1347.3 ± 2.4	821.877 ± 0.41	1331 ± 2.4	818.4 ± 0.41	1314.3 ± 2.4	814.903 ± 0.41	1297.7 ± 2.4	811.385 ± 0.41	CCCCCCCCO [octan-1-ol] + CCCCOCCOCCO
